pIC50: −log10 of the molar value.
How the values were obtained:
[1] = target: GABA-A receptor; anion channel; assay: Inhibition of [3H]flunitrazepam binding to GABA-A central Benzodiazepine receptor of bovine brain membranes; type: cell membranes, Bos taurus
[2] = target: GABA-A receptor; anion channel (Bos taurus) (UniProt P10063+P08220+P20237+P08219+P10064+P22300); assay: Inhibition of specific [3H]flunitrazepam binding to benzodiazepine receptor at 250 uM; type: protein-complex assay

Row | Structure (SMILES) | pIC50 [1] | inhibition [2] [%]
1 | CN1C(=O)CN=C(c2ccccc2)c2cc(Cl)ccc21 [DIAZEPAM] | 7.39 | 
2 | O=C(NC(Cc1ccc(O)cc1)C(=O)O)C(=O)c1c[nH]c2ccccc12 (stereo not drawn) |  | 27
3 | CNC1=Nc2ccc(Cl)cc2C(c2ccccc2)=[N+]([O-])C1 [CHLORDIAZEPOXIDE] | 5.96 | 
4 | CCOC(=O)C(C)NC(=O)C(=O)c1c[nH]c2ccc([N+](=O)[O-])cc12 (stereo not drawn) | 6.70 | 100
5 | COc1ccc2[nH]cc(C(=O)C(=O)NC(C(=O)O)C(C)C)c2c1 (stereo not drawn) |  | 12
6 | O=C(NC(Cc1c[nH]c2ccccc12)C(=O)O)C(=O)c1c[nH]c2ccccc12 (stereo not drawn) |  | 11
7 | CCOC(=O)C(C)NC(=O)C(=O)c1c[nH]c2ccccc12 (stereo not drawn) |  | 80
8 | O=C(NC(Cc1c[nH]c2ccccc12)C(=O)O)C(=O)c1c[nH]c2ccc(Cl)cc12 (stereo not drawn) |  | 61
9 | O=C(O)CNC(=O)C(=O)c1c[nH]c2ccccc12 |  | 20
10 | CCOC(=O)C(Cc1c[nH]c2ccccc12)NC(=O)C(=O)c1c[nH]c2ccc(Br)cc12 (stereo not drawn) | 4.66 | 100
11 | O=C(NC(Cc1ccccc1)C(=O)O)C(=O)c1c[nH]c2ccc(Br)cc12 (stereo not drawn) |  | 62
12 | O=C(NC(Cc1c[nH]c2ccccc12)C(=O)O)C(=O)c1c[nH]c2ccc(Br)cc12 (stereo not drawn) |  | 66
13 | O=C(O)CNC(=O)C(=O)c1c[nH]c2ccc(Cl)cc12 | 4.42 | 82
14 | COc1ccc2[nH]cc(C(=O)C(=O)NC(Cc3ccccc3)C(=O)O)c2c1 (stereo not drawn) |  | 38
15 | O=C(NC(Cc1c[nH]c2cc([N+](=O)[O-])ccc12)C(=O)O)C(=O)c1c[nH]c2ccccc12 (stereo not drawn) |  | 31
16 | CC(C)C(NC(=O)C(=O)c1c[nH]c2ccc([N+](=O)[O-])cc12)C(=O)O (stereo not drawn) | 4.22 | 83
17 | CCOC(=O)C(Cc1c[nH]c2cc([N+](=O)[O-])ccc12)NC(=O)C(=O)c1c[nH]c2ccccc12 (stereo not drawn) |  | 48
18 | CCOC(=O)C(C)NC(=O)C(=O)c1c[nH]c2ccc(Br)cc12 (stereo not drawn) | 5.32 | 100
19 | O=C(NC(Cc1ccc(O)cc1)C(=O)O)C(=O)c1c[nH]c2ccc(Cl)cc12 (stereo not drawn) |  | 67
20 | O=C1CN=C(c2ccccc2)c2cc([N+](=O)[O-])ccc2N1 [NITRAZEPAM] | 7.42 | 
21 | COC(=O)C(Cc1ccc(O)cc1)NC(=O)C(=O)c1c[nH]c2ccc([N+](=O)[O-])cc12 (stereo not drawn) | 4.70 | 100
22 | CC(C)C(NC(=O)C(=O)c1c[nH]c2ccccc12)C(=O)O (stereo not drawn) |  | 28
23 | CC(NC(=O)C(=O)c1c[nH]c2ccccc12)C(=O)O (stereo not drawn) |  | 72

Row | Structure (SMILES) | pIC50 [1] | inhibition [2] [%]
24 | CC(NC(=O)C(=O)c1c[nH]c2ccc([N+](=O)[O-])cc12)C(=O)O (stereo not drawn) | 5.21 | 94
25 | CCOC(=O)C(Cc1ccccc1)NC(=O)C(=O)c1c[nH]c2ccc(Br)cc12 (stereo not drawn) |  | 65
26 | CCOC(=O)C(NC(=O)C(=O)c1c[nH]c2ccc(Br)cc12)C(C)C (stereo not drawn) |  | 88
27 | CCOC(=O)C(Cc1ccc(O)cc1)NC(=O)C(=O)c1c[nH]c2ccc(Cl)cc12 (stereo not drawn) | 4.10 | 89
28 | CCOC(=O)C(Cc1c[nH]c2ccccc12)NC(=O)C(=O)c1c[nH]c2ccc([N+](=O)[O-])cc12 (stereo not drawn) |  | 59
29 | O=C(NC(Cc1ccc(O)cc1)C(=O)O)C(=O)c1c[nH]c2ccc(Br)cc12 (stereo not drawn) |  | 37
30 | CCOC(=O)CNC(=O)C(=O)c1c[nH]c2ccc(Br)cc12 | 5.70 | 100
31 | CCOC(=O)C(Cc1c[nH]c2ccccc12)NC(=O)C(=O)c1c[nH]c2ccc(Cl)cc12 (stereo not drawn) |  | 55
32 | CC(C)C(NC(=O)C(=O)c1c[nH]c2ccc(Cl)cc12)C(=O)O (stereo not drawn) |  | 68
33 | COC(=O)C(Cc1ccc(O)cc1)NC(=O)C(=O)c1c[nH]c2ccccc12 (stereo not drawn) |  | 50
34 | CCOC(=O)C(NC(=O)C(=O)c1c[nH]c2ccccc12)C(C)C (stereo not drawn) |  | 77
35 | CCOC(=O)C(NC(=O)C(=O)c1c[nH]c2ccc(Cl)cc12)C(C)C (stereo not drawn) |  | 62
36 | CCOC(=O)C(Cc1ccccc1)NC(=O)C(=O)c1c[nH]c2ccc(OC)cc12 (stereo not drawn) |  | 60
37 | CCOC(=O)C(Cc1c[nH]c2ccccc12)NC(=O)C(=O)c1c[nH]c2ccccc12 (stereo not drawn) |  | 70
38 | CCOC(=O)C(NC(=O)C(=O)c1c[nH]c2ccc(OC)cc12)C(C)C (stereo not drawn) |  | 66
39 | CCOC(=O)CNC(=O)C(=O)c1c[nH]c2ccccc12 |  | 84
40 | CCOC(=O)C(Cc1ccc(O)cc1)NC(=O)C(=O)c1c[nH]c2ccc(Br)cc12 (stereo not drawn) |  | 68
41 | CCOC(=O)C(C)NC(=O)C(=O)c1c[nH]c2ccc(Cl)cc12 (stereo not drawn) | 6.30 | 100
42 | CCOC(=O)CNC(=O)C(=O)c1c[nH]c2ccc(Cl)cc12 | 5.27 | 100
43 | CC(C)C(NC(=O)C(=O)c1c[nH]c2ccc(Br)cc12)C(=O)O (stereo not drawn) |  | 72
44 | O=C(NC(Cc1ccc(O)cc1)C(=O)O)C(=O)c1c[nH]c2ccc([N+](=O)[O-])cc12 (stereo not drawn) | 4.12 | 81
45 | CC(NC(=O)C(=O)c1c[nH]c2ccc(Cl)cc12)C(=O)O (stereo not drawn) | 4.66 | 93

— ChEMBL document CHEMBL1122981, “Specific inhibition of benzodiazepine receptor binding by some N-(indol-3-ylglyoxylyl)amino acid derivatives” (J Med Chem, 1985)
